{"source": "patent EP4729061A1", "about": "“USE OF AKT INHIBITOR IN PREPARATION OF DRUG FOR PREVENTING OR TREATING BREAST CANCER” (Nanjing Chia Tai Tianqing Pharmaceutical Co., Ltd., priority 2023, dated 2024)", "key": {"[1]": {"system": "MCF-7 Cells", "assay": "Cell proliferation inhibition, CTG (CelltiterGlo) method, alone or combined with fulvestrant", "format": "cell-based", "details": "compound alone; for IC50: Homo sapiens, MCF7, 168 h, 7 days; for Maximum Inhibition Rate on MCF-7 Cells: maximum value fitted by GraphPad Prism 8", "protocol": "a). BT-474 cells were cultured in Hybri-Care medium supplemented with 1% antibiotics and 10% FBS, and incubated in the condition of 37°C with 5% CO2; b). MCF-7 cells were cultured in EMEM medium supplemented with 1% antibiotics, 0.01 mg/mL insulin, and 10% FBS, and incubated in the condition of 37°C with 5% CO2; c). ZR-75-1 cells were cultured in RPMI-1640 medium supplemented with 1% antibiotics and 10% FBS, and incubated in the condition of 37°C with 5% CO2; d). T47D cells were cultured in RPMI-1640 medium supplemented with 1% antibiotics, 0.2 U/mL insulin, and 10% FBS, and incubated in the condition of 37°C with 5% CO2; e) CAMA-1 cells were cultured in EMEM medium supplemented with 1% antibiotics and 10% FBS, and incubated in the condition of 37°C with 5% CO2.\na). Cells were routinely cultured until reaching 80%-90% confluence and when the required cell number was reached, they were harvested; b). Resuspended in the corresponding medium, counted, and prepared into a cell suspension with appropriate density; c). The cell suspension was added to a 384-well plate at 40 µL per well. Table 1. Plating densities of different cell lines\nd). The cells were cultured overnight in an incubator at 37°C with 5% CO2 .\na). The compound of Formula (A) was serially diluted 3-fold for 10 concentrations starting from a stock solution of 60 mM (using the monofumarate dihydrate of the compound of Formula (A), with the concentration calculated based on the free base of the compound of Formula (A); the compound of Formula (A) or salt thereof was prepared with reference to the preparation method disclosed in WO2022017448A1); b). Fulvestrant was diluted from 10 mM to 2 mM with DMSO, then serially diluted 3-fold for 10 concentrations; c). Fulvestrant was diluted from 2 mM to 0.2 mM with DMSO, then serially diluted 3-fold for 10 concentrations; d). Fulvestrant was diluted from 0.2 mM to 2 µM with DMSO; e). Fulvestrant was diluted from 2 µM to 0.8 µM with DMSO; f). Fulvestrant was diluted from 2 µM to 0.3 µM with DMSO; g) Fulvestrant was diluted from 0.8 µM to 0.08 µM with DMSO; h). The final concentration of DMSO was 0.1%; i). Cells supplemented with DMSO served as control wells for high reading values; j). Cell-free medium served as control wells for low reading values.\n24 Hours after MCF-7, T47D, and CAMA-1 cells were plated, the compound was administered alone. For the compound of Formula (A): 20 nL of the compound prepared in step 2.3 a) + 20 nL of DMSO were added. For compound fulvestrant: 20 nL of the compound prepared in step 2.3 c) + 20 nL of DMSO were added.\n24 Hours after MCF-7 cells were plated, the compound of Formula (A) was administered in combination with fulvestrant: 20 nL of the compound prepared in step 2.3 a) + 20 nL of the compounds prepared in step 2.3 c), e), and f). […]"}, "[2]": {"system": "MCF-7 human breast cancer subcutaneous xenograft model", "assay": "Tumor inhibition in subcutaneous xenograft model", "format": "in vivo, female BALB/c nude mice", "details": "the compound of Formula (A) 25 mg/kg p.o. QD, Fulvestrant 5 mg/mouse s.c. QW; for Body weight Post 28 Days of Treatment: mean ± standard error; for Body weight Post 28 Days of Treatment / Tumor Volume 28 Days After Administration: n=12, x 4 weeks; for Tumor Volume 28 Days After Administration: tumor volume at grouping 204 ± 6, P <0.001 vs control; for T/C: relative tumor volume increase ratio; for T/C / TGI: day 28; for TGI: tumor growth inhibition rate", "source_text": "The purpose of this study is to evaluate the therapeutic efficacy of the compound of Formula (A) in combination with fulvestrant in the MCF-7 human breast cancer subcutaneous xenograft model in female BALB/c nude mice.\nBALB/c nude mice, 6-8 weeks old, female, weighing 18-20 g, were purchased from Beijing Anikeeper Biotech Co., Ltd.. The feeding environment was SPF-grade, the temperature is (23±3)°C and the humidity is 40-70%.\nSolvent for the compound of Formula (A): 1,2-Propanediol (PG) : 50% Solutol HS-15 : 0.5% Hydroxypropyl Methylcellulose (HPMC) = 2 : 1 : 7.\nCompound preparation methods\nMCF-7 tumor cells were cultured in DMEM medium containing inactivated 15% fetal bovine serum, 100 U/mL penicillin, and 100 µg/mL streptomycin in an incubator at 37°C with 5% CO2. Tumor cells in the logarithmic growth phase were used for in vivo tumor inoculation.\nOne day before the inoculation of MCF-7 tumor cells, the mice were subcutaneously implanted with an estrogen tablet (0.5 mg, 90-day release period) on the left side. MCF-7 tumor cells resuspended in serum-free DMEM medium were inoculated subcutaneously into the right costal region of the experimental animals at a density of 1.5 × 10^7 cells (0.2 mL + Matrigel), with a total of 72 animals inoculated. When the tumors grew to approximately 204 mm^3, 48 animals with relatively uniform tumor volumes were selected for grouping and administration, divided into 4 groups, and administered according to the dosing schedule. Table 8. Compounds administration schedule\nTumor volume was measured twice a week using a vernier caliper. The long diameter and short diameter of the tumor were measured, and the volume was calculated using the formula: Volume = 0.5×long diameter×short diameter^2.\nWhile measuring the tumor volume, the body weight of the mice was weighed. The relationship between the changes in the mice's body weight and the administration time was recorded. Meanwhile, the survival status and health conditions of the mice were observed, such as their general states including activity and food intake during the administration period.\nTumor Growth Inhibition Rate(TGI,%) = (1−T/C) × 100 [formula]\nStatistical analysis of tumor volume between groups was performed using the statistical software SPSS 16.0 and One-Way ANOVA test. A p-value < 0.05 was considered statistically significant."}}, "data": [{"smiles": "CC(C)NC[C@@H](C(=O)N1CCN(c2ncnc3c2[C@H](C)CC(=O)N3)[C@H]2C[C@H]21)c1ccc(Cl)cc1", "note": "[The compound of Formula (A), (R)-4-((1S,6R)-5-((S)-2-(4-chlorophenyl)-3-(isopropylamino)propanoyl)-2,5-diazabicyclo[4.1.0]heptan-2-yl)-5-methyl-5,8-dihydropyrido[2,3-d]pyrimidin-7(6H)-one]", "values": [{"measurement": "IC50", "setting": "[1]", "value": 0.759, "unit": "µM"}, {"measurement": "Maximum Inhibition Rate on MCF-7 Cells", "setting": "[1]", "value": 98.92, "unit": "%"}, {"measurement": "Body weight Post 28 Days of Treatment", "setting": "[2]", "value": "23.8 ± 0.5", "unit": "g"}, {"measurement": "Tumor Volume 28 Days After Administration", "setting": "[2]", "value": "684 ± 65", "unit": "mm^3"}, {"measurement": "T/C", "setting": "[2]", "value": 58.4, "unit": "%"}, {"measurement": "TGI", "setting": "[2]", "value": 41.6, "unit": "%"}]}, {"smiles": "C[C@]12CC[C@@H]3c4ccc(O)cc4C[C@@H](CCCCCCCCC[S+]([O-])CCCC(F)(F)C(F)(F)F)[C@H]3[C@@H]1CC[C@@H]2O", "note": "(stereo partly drawn) [Fulvestrant, reference compound]", "values": [{"measurement": "IC50", "setting": "[1]", "value": 0.00019, "unit": "µM"}, {"measurement": "Maximum Inhibition Rate on MCF-7 Cells", "setting": "[1]", "value": 54.67, "unit": "%"}, {"measurement": "Body weight Post 28 Days of Treatment", "setting": "[2]", "value": "25.9 ± 0.3", "unit": "g"}, {"measurement": "Tumor Volume 28 Days After Administration", "setting": "[2]", "value": "546 ± 54", "unit": "mm^3"}, {"measurement": "T/C", "setting": "[2]", "value": 46.9, "unit": "%"}, {"measurement": "TGI", "setting": "[2]", "value": 53.1, "unit": "%"}]}]}
